Source: ChEMBL document CHEMBL4814006, “Novel amino substituted tetracyclic imidazo[4,5-b]pyridine derivatives: Design, synthesis, antiproliferative activity and DNA/RNA binding study” (Eur J Med Chem, 2021)
Active and inactive are the calls of the source. No cut-off for these calls is given here.

How the values were obtained:
[1] = tested on: NCI-H460; assay: Antiproliferative activity against human NCI-H460 cells assessed as inhibition of cell growth incubated for 72 hrs by MTT assay; format: functional, cell-based; details: NCI-H460, 72 h
[2] = Selectivity index, ratio of IC50 for human HEK293 cells to IC50 for human HCT116 cells; format: toxicity; details: HEK293 cells versus HCT116 cells, read-out: Ratio IC50
[3] = tested on: HCT-116; assay: Antiproliferative activity against human HCT-116 cells assessed as inhibition of cell growth incubated for 72 hrs by MTT assay; format: functional, cell-based; details: HCT-116, 72 h
[4] = tested on: HEK293; assay: Cytotoxicity against human HEK293 cells assessed as inhibition of cell growth incubated for 72 hrs by MTT assay; format: cell-based; details: HEK293, 72 h
[5] = tested on: MCF7; assay: Antiproliferative activity against human MCF7 cells assessed as inhibition of cell growth incubated for 72 hrs by MTT assay; format: functional, cell-based; details: MCF7, 72 h
[6] = tested on: Quadruplex DNA; assay: Binding affinity to human Tel22 G quadruplex DNA assessed as change in melting temperature in sodium cacodylate buffer at pH 7 by UV/Vis spectrophotometric analysis; format: nucleic-acid assay
[7] = tested on: Poly(dA-dT)oligonucleotide; assay: Binding affinity to poly(dAdT)2 DNA (unknown origin) assessed as binding constant in sodium cacodylate buffer at pH 7 by fluorescence spectroscopy; format: nucleic-acid assay
[8] = tested on: Poly(dA-dU)oligonucleotide; assay: Binding affinity to polyA-polyU RNA (unknown origin) assessed as ratio of bound compound to polynucleotide phosphate in sodium cacodylate buffer at pH 7 by fluorescence spectroscopy based Scatchard method; format: nucleic-acid assay
[9] = tested on: Poly(dA-dU)oligonucleotide; assay: Binding affinity to polyA-polyU RNA (unknown origin) assessed as change in melting temperature in sodium cacodylate buffer at pH 7 at compound:polynucleotide concentration ratio of 0.3 by UV/vis spectrophotometric analysis; format: nucleic-acid assay
[10] = tested on: Poly(dA-dT)oligonucleotide; assay: Binding affinity to poly(dAdT)2 DNA (unknown origin) in sodium cacodylate buffer at pH 7 by CD spectroscopy; format: nucleic-acid assay
[11] = tested on: Poly(dA-dT)oligonucleotide; assay: Binding affinity to poly(dAdT)2 DNA (unknown origin) assessed as ratio of fluorescence intensity of compound-polynucleotide complex to fluorescence intensity of compound in sodium cacodylate buffer at pH 7 by fluorescence spectroscopy based Scatchard method; format: nucleic-acid assay
[12] = tested on: Poly(dA-dU)oligonucleotide; assay: Binding affinity to polyA-polyU RNA (unknown origin) assessed as binding constant in sodium cacodylate buffer at pH 7 by fluorescence spectroscopy; format: nucleic-acid assay
[13] = tested on: Poly(dA-dT)oligonucleotide; assay: Binding affinity to poly(dAdT)2 DNA (unknown origin) assessed as change in melting temperature in sodium cacodylate buffer at pH 7 at compound:polynucleotide concentration ratio of 0.3 by UV/Vis spectrophotometric analysis; format: nucleic-acid assay
[14] = tested on: Poly(dA-dT)oligonucleotide; assay: Binding affinity to poly(dAdT)2 DNA (unknown origin) assessed as ratio of bound compound to polynucleotide phosphate in sodium cacodylate buffer at pH 7 by fluorescence spectroscopy based Scatchard method; format: nucleic-acid assay
[15] = tested on: Calf thymus DNA; assay: Binding affinity to calf thymus DNA in sodium cacodylate buffer at pH 7 by CD spectroscopy; details: Bos taurus
[16] = tested on: Quadruplex DNA; assay: Binding affinity to human Tel22 G quadruplex DNA assessed as ratio of fluorescence intensity of compound-polynucleotide complex to fluorescence intensity of compound in sodium cacodylate buffer at pH 7 at binding stoichiometry ratio of 1:1 by fluorescence spectroscopy; format: nucleic-acid assay
[17] = tested on: Calf thymus DNA; assay: Binding affinity to calf thymus DNA assessed as change in melting temperature in sodium cacodylate buffer at pH 7 at compound:polynucleotide concentration ratio of 0.3 by UV/Vis spectrophotometric analysis; format: nucleic-acid assay; details: Bos taurus
[18] = tested on: Poly(dA-dU)oligonucleotide; assay: Binding affinity to polyA-polyU RNA (unknown origin) assessed as ratio of fluorescence intensity of compound-polynucleotide complex to fluorescence intensity of compound in sodium cacodylate buffer at pH 7 by fluorescence spectroscopy based Scatchard method; format: nucleic-acid assay
[19] = tested on: Quadruplex DNA; assay: Binding affinity to human Tel22 G quadruplex DNA assessed as binding constant in sodium cacodylate buffer at pH 7 at binding stoichiometry ratio of 1:1 by fluorescence spectroscopy; format: nucleic-acid assay
[20] = tested on: Poly(dG-dC)oligonucleotide; assay: Binding affinity to poly(dGdC)2 DNA (unknown origin) in sodium cacodylate buffer at pH 7 by CD spectroscopy; format: nucleic-acid assay

Row | Compound | IC50 [1] [µM] | selectivity ratio [2] | IC50 [3] [µM] | IC50 [4] [µM] | IC50 [5] [µM] | ΔTm [6] [°C] | log Ks [7] | Ratio [8] | ΔTm [9] [°C] | Activity [10] | Ratio [11] | log Ks [12] | ΔTm [13] [°C] | Ratio [14] | Activity [15] | Ratio [16] | ΔTm [17] [°C] | Ratio [18] | log Ks [19] | Activity [20]
1 | N#Cc1c(Cl)c2ccccc2n2c1nc1ncccc12 | 4.6 | 16 | 0.1 | 1.6 | 2 |  |  |  |  |  |  |  |  |  |  |  |  |  |  | 
2 | CC(C)CNc1c(C#N)c2nc3cccnc3n2c2ccccc12 | ≥ 100 |  | ≥ 100 | > 100 | ≥ 100 | 1.8 | 4.6 | < 0.1 | 0 | Active | 10.4 | 5.3 | 0.8 | 0.1 | Active | 5.52 | 0.8 | 2.5 | 4.51 | inactive
